Results: the supplement of paper PMC10307832

Legend:
Experiment in all cases: relative viability (nuclei count vs DMSO), 5 days (fraction); higher = more cells survive
[1] = compound: C=CC(=O)N1CCC[C@@H](n2nc(-c3ccc(Oc4ccccc4)cc3)c3c(N)ncnc32)C1 [Ibrutinib]
In short: (§1)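 Five library-drug doses spaced by √10 were pinned onto vehicle-anchored 1536-well plates of lung cancer cell lines that had been kept overnight at 37 °C. Cells went 5 days without medium change, then were fixed, permeabilised and Hoechst-stained together, imaged at 4× and counted by MetaXpress. Viability is the ratio of treated-well to vehicle-well nuclei, taken as a median over plates. Plates required control CV below 25% and at least one doubling.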

[2] = compound: C=CCc1cccc(/C=N/NC(=O)CN2CCN(Cc3ccccc3)CC2)c1O [PAC-1]
In short: as §1

[3] = compound: C=CC(=O)N1CCC[C@@H](n2nc(-c3ccc(Oc4ccccc4)cc3)c3c(N)ncnc32)C1 [Ibrutinib] + Cc1cc(Nc2cc(N3CCN(C)CC3)nc(Sc3ccc(NC(=O)C4CC4)cc3)n2)n[nH]1 [Tozasertib] (partner 0.1 µM)
In short: (§2)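 After 5 days of treatment, lung cancer cells in 1536-well plates were fixed and stained in a single step (final 0.05% Triton X-100, 1% formaldehyde, 1 ug/ml Hoechst) and their nuclei counted on 4× images. Treatment had been applied by pin tool the day after seeding as one drug alone or as a fixed anchor-drug dose with five library-drug doses (not always all listed) in √10 steps. Relative viability is the nuclei count of treated wells divided by that of vehicle wells, and values are medians of duplicate plates.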

[4] = compound: C=CC(=O)N1CCC[C@@H](n2nc(-c3ccc(Oc4ccccc4)cc3)c3c(N)ncnc32)C1 [Ibrutinib] + O=C(c1cc(Cc2n[nH]c(=O)c3ccccc23)ccc1F)N1CCN(C(=O)C2CC2)CC1 [Olaparib] (partner 8 µM)
In short: as §2

Row | Cell Line | relative viability ([1]; 0.005 µM) | relative viability ([1]; 0.05 µM) | relative viability ([1]; 0.1581 µM) | relative viability ([1]; 0.5 µM) | relative viability ([2]; 0.02 µM) | relative viability ([2]; 0.06325 µM) | relative viability ([2]; 0.2 µM) | relative viability ([2]; 2 µM) | relative viability ([3]; first compound 0.005 µM) | relative viability ([3]; first compound 0.01581 µM) | relative viability ([3]; first compound 0.05 µM) | relative viability ([3]; first compound 0.1581 µM) | relative viability ([3]; first compound 0.5 µM) | relative viability ([4]; first compound 0.005 µM) | relative viability ([4]; first compound 0.01581 µM) | relative viability ([4]; first compound 0.5 µM) | relative viability ([1]; 0.01581 µM) | relative viability ([4]; first compound 0.05 µM) | relative viability ([4]; first compound 0.1581 µM)
1 | NCI-H2405 | 0.924 | 0.832 | 0.713 | 0.973 | 1.04 | 1 | 1.01 | 1.09 | 0.85 | 0.739 | 0.798 | 0.75 | 0.717 | 0.877 | 0.877 | 0.953 |  |  | 
2 | NCI-H3122 | 1.05 | 0.996 | 0.895 | 1 | 0.991 | 0.989 | 0.965 | 0.965 | 0.507 | 0.395 | 0.343 | 0.415 | 0.46 | 0.774 | 0.6 | 0.695 | 0.989 | 0.582 | 0.644
3 | PC-3 [JPC-3] | 1.03 | 0.906 | 0.912 | 0.638 | 1.06 | 1.08 | 1.05 | 1.03 | 0.872 | 0.772 | 0.873 | 0.99 | 0.681 | 1.21 | 0.996 | 0.523 | 0.97 | 0.93 | 1.29
4 | PC-14 | 1.08 | 0.952 | 1.02 | 0.571 | 1.03 | 1.03 | 0.995 | 0.988 | 0.646 | 0.536 | 0.568 | 0.556 | 0.452 | 0.369 | 0.318 | 0.265 | 0.918 | 0.37 | 0.286
5 | RERF-LC-KJ | 1.03 | 0.942 | 0.989 | 0.849 | 1.08 | 1 | 0.947 | 0.942 | 0.59 | 0.5 | 0.467 | 0.537 | 0.544 | 0.994 | 0.863 | 0.868 | 0.85 | 0.89 | 0.965
6 | SK-LU-1 | 0.944 | 0.987 | 1.02 |  | 1 | 1.02 | 0.975 | 0.999 | 0.363 | 0.252 | 0.399 | 0.347 | 0.33 | 0.411 | 0.426 | 0.371 | 0.954 | 0.447 | 0.722
7 | SW 900 | 0.578 | 0.873 | 0.708 | 0.845 | 0.766 | 1.02 | 0.815 | 0.792 |  |  | 0.663 | 0.627 | 0.59 | 0.886 | 0.694 | 0.752 | 0.693 | 0.832 | 1.02
8 | SW 1573 | 0.912 |  | 0.94 | 0.974 | 0.965 | 1.03 | 1.01 | 1.15 | 0.189 | 0.169 | 0.195 | 0.174 | 0.184 | 0.57 | 0.401 | 0.485 | 0.924 | 0.51 | 0.456
9 | UMC-11 | 0.75 | 1.01 | 0.937 | 0.922 | 1 | 0.969 | 1 | 1.01 | 0.194 | 0.203 | 0.203 | 0.203 | 0.188 | 0.338 | 0.392 | 0.377 | 0.931 | 0.538 | 0.663
